# Molecular target: Alcohol dehydrogenase (Equus caballus, UniProt P00327+P00328)
# Test: Inhibition constant was evaluated against horse liver alcohol dehydrogenase
row,Inhibition constant [mM],SMILES
1,4.9,Nc1ncnc2c1ncn2CCCS(=O)(=O)O
2,4.3,Nc1ncnc2c1ncn2CCS(=O)(=O)O

# The next lines start with the compound.
row,SMILES,Inhibition constant [mM]
1,COP(=O)(O)OC[C@H]1OC(n2cnc3c(N)ncnc32)[C@H](O)[C@@H]1O (stereo partly specified),0.44
2,Nc1ncnc2c1ncn2C1O[C@H](CO)[C@H](S(=O)(=O)O)[C@H]1O (stereo partly specified),1.2
3,Nc1ncnc2c1ncn2C1O[C@H](CS(=O)(=O)O)[C@@H](O)[C@H]1O (stereo partly specified),0.18
4,Nc1ncnc2c1ncn2[C@@H]1O[C@H](COP(=O)(O)O)[C@@H](O)[C@H]1O [ADENOSINE PHOSPHATE],0.038
